Several values for one entry are separate records, joined by “and”; a condition that tells them apart may be missing. Equal entries are not always repeated.
Test system: 885512-296-R-J2-PDC complex spheroid growth, % test/control
Assay: Anticancer human tumor 885512-296-R-J2-PDC patient-derived breast carcinoma cell line growth inhibition [Asc]
Conditions: for viability, T/C: stronger effect = lower value
Method in brief: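 Spheroid model: tumor line + HUVEC + hMSC. Single agents and combinations; top conc. at/near clinical Cmax (10 microM if undetermined), half-log dilutions. DMSO stocks at 800-fold test concentration.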

[1] = curve of first compound, second compound 0.01 µM
[2] = curve of first compound, second compound 0.0316 µM
[3] = curve of first compound, second compound 0.1 µM
[4] = curve of first compound, second compound 0.316 µM
[5] = curve of first compound, second compound 1 µM
[6] = second compound 0.01 µM, first compound 0.0316 µM
[7] = second compound 0.01 µM, first compound 0.1 µM
[8] = second compound 0.01 µM, first compound 0.316 µM
[9] = second compound 0.01 µM, first compound 1 µM
[10] = second compound 0.01 µM, first compound 3.16 µM
[11] = second compound 0.01 µM, first compound 10 µM
[12] = second compound 0.0316 µM, first compound 0.0316 µM
[13] = second compound 0.0316 µM, first compound 0.1 µM
[14] = second compound 0.0316 µM, first compound 0.316 µM
[15] = second compound 0.0316 µM, first compound 1 µM
[16] = second compound 0.0316 µM, first compound 3.16 µM
[17] = second compound 0.0316 µM, first compound 10 µM
[18] = second compound 0.1 µM, first compound 0.0316 µM
[19] = second compound 0.1 µM, first compound 0.1 µM
[20] = second compound 0.1 µM, first compound 0.316 µM
[21] = second compound 0.1 µM, first compound 1 µM
[22] = second compound 0.1 µM, first compound 3.16 µM
[23] = second compound 0.1 µM, first compound 10 µM
[24] = second compound 0.316 µM, first compound 0.0316 µM
[25] = second compound 0.316 µM, first compound 0.1 µM
[26] = second compound 0.316 µM, first compound 0.316 µM
[27] = second compound 0.316 µM, first compound 1 µM
[28] = second compound 0.316 µM, first compound 3.16 µM
[29] = second compound 0.316 µM, first compound 10 µM
[30] = second compound 1 µM, first compound 0.0316 µM
[31] = second compound 1 µM, first compound 0.1 µM
[32] = second compound 1 µM, first compound 0.316 µM
[33] = second compound 1 µM, first compound 1 µM
[34] = second compound 1 µM, first compound 3.16 µM
[35] = second compound 1 µM, first compound 10 µM
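Further: spheroids exposed to compounds for seven days.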
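Wherever viability, T/C is given: 100% = DMSO vehicle control wells.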

For `C=CC(=O)N1CCN(c2nc(=O)n(-c3c(C)ccnc3C(C)C)c3nc(-c4c(O)cccc4F)c(F)cc23)C(C)C1` (configuration not stated) + CNC(C)C(=O)NC1CN(S(=O)(=O)c2cccc(S(=O)(=O)N3CCC4CCC(C(=O)NC(c5ccccc5)c5ccccc5)N4C(=O)C(NC(=O)C(C)NC)C3)c2)CCC2CCC(C(=O)NC(c3ccccc3)c3ccccc3)N2C1=O, the IC50 [1] was over 10 µM, the IC50 [2] was over 10 µM and the IC50 [3] was over 10 µM. It also gave an IC50 [4] of over 10 µM, an IC50 [5] of over 10 µM and a viability, T/C [6] of 88.2%. The viability, T/C [7] was 80.9%, the viability, T/C [8] was 101% and the viability, T/C [9] was 81.3%. The viability, T/C [10] was 90.6%, the viability, T/C [11] was 64.2% and the viability, T/C [12] was 90.3%. For the same compound, the viability, T/C [13] was 104%, the viability, T/C [14] was 96.6% and the viability, T/C [15] was 97.2%. It also gave a viability, T/C [16] of 92.6%, a viability, T/C [17] of 68.5% and a viability, T/C [18] of 111%. The viability, T/C [19] was 109%, the viability, T/C [20] was 98% and the viability, T/C [21] was 98.6%. For the same compound, the viability, T/C [22] was 87.7%, the viability, T/C [23] was 66.8% and the viability, T/C [24] was 104%. For the same compound, the viability, T/C [25] was 106%, the viability, T/C [26] was 98.8% and the viability, T/C [27] was 100%. For the same compound, the viability, T/C [28] was 84.4%, the viability, T/C [29] was 68.6% and the viability, T/C [30] was 105%. It also gave a viability, T/C [31] of 103%, a viability, T/C [32] of 104% and a viability, T/C [33] of 109%. For the same compound, the viability, T/C [34] was 79.2% and the viability, T/C [35] was 59%.

`CNC(C)C(=O)NC1CN(S(=O)(=O)c2cccc(S(=O)(=O)N3CCC4CCC(C(=O)NC(c5ccccc5)c5ccccc5)N4C(=O)C(NC(=O)C(C)NC)C3)c2)CCC2CCC(C(=O)NC(c3ccccc3)c3ccccc3)N2C1=O` (configuration not stated) + CCN1C(C(=O)NC23CCC(C(=O)O)(CC2)CC3)C(c2cccc(Cl)c2F)C2(C(=O)Nc3cc(Cl)ccc32)C12CCCCC2 gave an IC50 (curve of first compound, second compound 0.03 µM) of over 1 µM, an IC50 (curve of first compound, second compound 0.0949 µM) of over 1 µM and an IC50 (curve of first compound, second compound 0.3 µM) of over 1 µM. The IC50 (curve of first compound, second compound 0.949 µM) was over 1 µM, the IC50 (curve of first compound, second compound 3 µM) was under 0.00316 µM and the viability, T/C (second compound 0.03 µM, first compound 0.00316 µM) was 92.3%. The viability, T/C (second compound 0.03 µM, first compound 0.01 µM) was 90.4%, the viability, T/C (second compound 0.03 µM, first compound 0.0316 µM) was 99.8% and the viability, T/C (second compound 0.03 µM, first compound 0.1 µM) was 94.2%. The viability, T/C (second compound 0.03 µM, first compound 0.316 µM) was 126%, the viability, T/C (second compound 0.03 µM, first compound 1 µM) was 109% and the viability, T/C (second compound 0.0949 µM, first compound 0.00316 µM) was 77.6%. The viability, T/C (second compound 0.0949 µM, first compound 0.01 µM) was 110%, the viability, T/C (second compound 0.0949 µM, first compound 0.0316 µM) was 90.3% and the viability, T/C (second compound 0.0949 µM, first compound 0.1 µM) was 112%. For the same compound, the viability, T/C (second compound 0.0949 µM, first compound 0.316 µM) was 120%, the viability, T/C (second compound 0.0949 µM, first compound 1 µM) was 115% and the viability, T/C (second compound 0.3 µM, first compound 0.00316 µM) was 84.3%. It also gave a viability, T/C (second compound 0.3 µM, first compound 0.01 µM) of 88.7%, a viability, T/C (second compound 0.3 µM, first compound 0.0316 µM) of 91.6% and a viability, T/C (second compound 0.3 µM, first compound 0.1 µM) of 93%. For the same compound, the viability, T/C (second compound 0.3 µM, first compound 0.316 µM) was 103%, the viability, T/C (second compound 0.3 µM, first compound 1 µM) was 112% and the viability, T/C (second compound 0.949 µM, first compound 0.00316 µM) was 75.3%. It also gave a viability, T/C (second compound 0.949 µM, first compound 0.01 µM) of 72.8%, a viability, T/C (second compound 0.949 µM, first compound 0.0316 µM) of 76.6% and a viability, T/C (second compound 0.949 µM, first compound 0.1 µM) of 87.6%. It also gave a viability, T/C (second compound 0.949 µM, first compound 0.316 µM) of 91.9%, a viability, T/C (second compound 0.949 µM, first compound 1 µM) of 86.6% and a viability, T/C (second compound 3 µM, first compound 0.00316 µM) of 41.4%. For the same compound, the viability, T/C (second compound 3 µM, first compound 0.01 µM) was 37.4%, the viability, T/C (second compound 3 µM, first compound 0.0316 µM) was 49% and the viability, T/C (second compound 3 µM, first compound 0.1 µM) was 59.5%. It also gave a viability, T/C (second compound 3 µM, first compound 0.316 µM) of 59% and a viability, T/C (second compound 3 µM, first compound 1 µM) of 62.6%.

In the case of `O=C(c1cc(Cc2n[nH]c(=O)c3ccccc23)ccc1F)N1CCN(C(=O)C2CC2)CC1` + CNC(C)C(=O)NC1CN(S(=O)(=O)c2cccc(S(=O)(=O)N3CCC4CCC(C(=O)NC(c5ccccc5)c5ccccc5)N4C(=O)C(NC(=O)C(C)NC)C3)c2)CCC2CCC(C(=O)NC(c3ccccc3)c3ccccc3)N2C1=O, the IC50 [1] is reported as 4.11 µM, the IC50 [2] is reported as 2.96 µM and the IC50 [3] is reported as 3.93 µM. For the same compound, the IC50 [4] was 3.85 µM, the IC50 [5] was 3.63 µM and the viability, T/C [6] was 95.6%. For the same compound, the viability, T/C [7] was 96.4%, the viability, T/C [8] was 95.6% and the viability, T/C [9] was 94.5%. It also gave a viability, T/C [10] of 60.7%, a viability, T/C [11] of 13.5% and a viability, T/C [12] of 97.1%. It also gave a viability, T/C [13] of 101%, a viability, T/C [14] of 99.6% and a viability, T/C [15] of 84%. The viability, T/C [16] was 48.2%, the viability, T/C [17] was 14.4% and the viability, T/C [18] was 97.9%. For the same compound, the viability, T/C [19] was 98.2%, the viability, T/C [20] was 106% and the viability, T/C [21] was 86.2%. It also gave a viability, T/C [22] of 59.8%, a viability, T/C [23] of 10.6% and a viability, T/C [24] of 101%. For the same compound, the viability, T/C [25] was 106%, the viability, T/C [26] was 102% and the viability, T/C [27] was 89.3%. It also gave a viability, T/C [28] of 58.1%, a viability, T/C [29] of 12% and a viability, T/C [30] of 96.1%. It also gave a viability, T/C [31] of 97.8%, a viability, T/C [32] of 95.4% and a viability, T/C [33] of 87.2%. The viability, T/C [34] was 55% and the viability, T/C [35] was 13.1%.

In the case of `O=C(c1cc(Cc2n[nH]c(=O)c3ccccc23)ccc1F)N1CCN(C(=O)C2CC2)CC1`, the viability, T/C (compound 0.0316 µM) is reported as 99.2% and 96.5% and 98%, the viability, T/C (compound 0.1 µM) is reported as 113% and 117% and 108% and the viability, T/C (compound 0.316 µM) is reported as 102% and 115% and 97.6%. The viability, T/C (compound 1 µM) was 98.8% and 98.3% and 107%, the viability, T/C (compound 3.16 µM) was 71.3% and 71.5% and 75.3% and the viability, T/C (compound 10 µM) was 19.2% and 17.5% and 20.8%. For the same compound, the IC50 (curve of compound) was 5.07 µM and 4.97 µM and 5.4 µM.
